{
  "source": "patent EP0691985B1",
  "about": "“[…]” (MERRELL PHARMACEUTICALS INC., priority 1993, dated 1994)",
  "key": {"ET receptors": {"tested_on": "ET receptors", "assay": "Effect of ET-l on phosphatidyl inositol turnover (IPl formation) in rat brain slices, counter-test", "assay_type": "cell-based", "settings": "rat striatum slices, ETl 10^-6M", "method": "The buffer was changed every 15 minutes."}, "[1]": {"tested_on": "Endothelin Converting Enzyme (ECE)", "settings": "read-out: IC50 (concentration inhibiting 50% of the effect of pro-ETl 10^-6M); rat striatum slices; pro-ET-l 10^-6M; [3H]-IPl accumulation; determined graphically", "description": "In vitro Endothelin Converting Enzyme (ECE) assay via IPl formation in rat brain slices. This assay measures the enzymatic activity responsible for the generation of functional ET-l from pro-ET-l by measuring the stimulation of phosphatidyl inositol turnover as a marker of ET-l effects:\nThe precursor of ET-l, i.e., proendothelin-l (pro-ET-l), is unable to stimulate the phosphatidyl inositol turnover unless it is cleaved by a specific phosphoramidon sensitive protease, i.e., endothelin converting enzyme (ECE). […] For this assay, an adaptation of the procedure of Brown et al., J. Neurochem., 42:1379, 1984, was used.\nThe exact concentration of these solutions was checked by absorbance spectrophotometry at 280 nm, using the equation C = A / L ε280 [formula] (with C the concentration of the peptide in solution, A the absorbance measured, L the optical path length of the solution and ε280 the extinction coefficient of the peptide in solution (8370 and 7025 M^-1cm^-1 for pro-ET-l and ET-l, respectively)]. The stock solutions were then aliquoted, lyophilized and stored at -20°C. The peptides were redissolved and diluted in water on the day of the experiment (peptides for other tests also prepared by this method ). […]\nIn these conditions the stimulation of phosphatidyl inositol turnover by pro-ET-l can be assessed by measuring the amount of accumulated [^3H]-IPl."}},
  "data": [
    {"smiles": "CC(C)C[C@H](NP(=O)(O)O[C@@H]1O[C@@H](C)[C@H](O)[C@@H](O)[C@H]1O)C(=O)N[C@@H](Cc1c[nH]c2ccccc12)C(=O)O", "note": "[phosphoramidon]", "values": [
      {"measurement": "IC50", "setting": "ET receptors; [3H]-IPl accumulation, determined graphically, read-out: RC50 (concentration reducing 50% of the effect of ETl 10^-6M)", "result": "> 30", "unit": "µM"},
      {"measurement": "% of maximal reduction observed", "setting": "ET receptors; recorded when RC50 >30 µM (up to 3 × 10^-5M)", "result": "75 ± 9", "unit": "%"},
      {"measurement": "IC50", "setting": "[1]", "result": "6.4 ± 1.1", "unit": "µM"}
    ]}
  ]
}
